These results are taken from patent US7396830B2, “Piperazine amidines as antiviral agents” (priority 2005, dated 2008).

Usually EC50 stands for the midpoint of the concentration-response curve.

Structures are written as SMILES. Where only a bound is given, the exact number is not on record here.

The assay concerns HIV-1. As to the kind of experiment: Single-round infectious HIV-1 luciferase reporter virus infection of HeLa CD4 cells. As to conditions: Human immunodeficiency virus 1, HeLa, 72 h, read-out: EC50 Group from Table 1. The format is cell-based. The method, then: • Virus production—Human embryonic Kidney cell line, 293T, was propagated in Dulbecco's Modified Eagle Medium (Invitrogen, Carlsbad, Calif.) containing 10% fetal Bovine serum (FBS, Sigma, St. Louis, Mo.). • Virus infection—Human epithelial cell line, HeLa, expressing the HIV-1 receptor CD4 was propagated in Dulbecco's Modified Eagle Medium (Invitrogen, Carlsbad, Calif.) containing 10% fetal Bovine serum (FBS, Sigma, St. Louis , Mo.) and supplemented with 0.2 mg/mL Geneticin (Invitrogen, Carlsbad, Calif.). Virus-Single-round infectious reporter virus was produced by co-transfecting human embryonic Kidney 293 cells with an HIV-1 envelope DNA expression vector and a proviral cDNA containing an envelope deletion mutation and the luciferase reporter gene inserted in place of HIV-1 nef sequences (Chen et al, Ref. 41). Transfections were performed using lipofectAMINE PLUS reagent as described by the manufacturer (Invitrogen, Carlsbad, Calif.). Experiment • 1. HeLa CD4 cells were plated in 96 well plates at a cell density of 1×10^4 cells per well in 100 μl Dulbecco's Modified Eagle Medium containing 10% fetal Bovine serum and incubated overnight. • 2. Compound was added in a 2 μl dimethylsulfoxide solution, so that the final assay concentration would be ≦10 μM. • 3. 100 μl of single-round infectious reporter virus in Dulbecco's Modified Eagle Medium was then added to the plated cells and compound at an approximate multiplicity of infection (MOI) of 0.01, resulting in a final volume of 200 μl per well. • 4. Virally-infected cells were incubated at 37 degrees Celsius, in a CO2 incubator, and harvested 72 h after infection. • 5. Viral infection was monitored by measuring luciferase expression from viral DNA in the infected cells using a luciferase reporter gene assay kit, as described by the manufacturer (Roche Molecular Biochemicals, Indianapolis, Ind.). Infected cell supernatants were removed and 50 μl of lysis buffer was added per well. After 15 minutes, 50 μl of freshly-reconstituted luciferase assay reagent was added per well. Luciferase activity was then quantified by measuring luminescence using a Wallac microbeta scintillation counter. • 6. The percent inhibition for each compound was calculated by quantifying the level of luciferase expression in cells infected in the presence of each compound as a percentage of that observed for cells infected in the absence of compound and subtracting such a determined value from 100. • 7. An EC50 provides a method for comparing the antiviral potency of the compounds of this disclosure. The effective concentration for fifty percent inhibition (EC50) was calculated with the Microsoft Excel Xlfit curve fitting software. For each compound, curves were generated from percent inhibition calculated at 10 different concentrations by using a four paramenter logistic model (model 205). Table 1 is the key for the data in Table 2. Results
Background: Reporter assays use an easily measured gene product as a stand-in for the process of interest.
As for `N=C(c1ccccc1)N1CCN(C(=O)C(=O)c2c[nH]c3cccc(F)c23)CC1` [AM-01, 1-(4-fluoro-1H-indol-3-yl)-2-(4-(imino(phenyl)methyl)piperazin-1-yl)ethane-1,2-dione], the EC50 was under 500 nM.

Take `N#C/N=C(\c1ccccc1)N1CCN(C(=O)C(=O)c2c[nH]c3cccc(F)c23)CC1` [AM-02]: the EC50 was under 500 nM.

On to `COc1ncc(OC)c2c(C(=O)C(=O)N3CCN(/C(=N/C#N)c4ccccc4)CC3)c[nH]c12` [AM-03], for which the EC50 was under 500 nM. In the case of `CN(C)S(=O)(=O)/N=C(\c1ccccc1)N1CCN(C(=O)C(=O)c2c[nH]c3ccccc23)CC1` [AM-04], the EC50 was under 500 nM. As for `CCN(CC)CC/N=C(\c1ccccc1)N1CCN(C(=O)C(=O)c2c[nH]c3c(Br)ccc(F)c23)CC1` [AM-05], the EC50 is under 500 nM. As to `O=C(C(=O)N1CCN(/C(=N/CCN2CCOCC2)c2ccccc2)CC1)c1c[nH]c2c(Br)ccc(F)c12` [AM-06], the concentration giving a half-maximal response (EC50) was under 500 nM. With `COc1ccc(Br)c2[nH]cc(C(=O)C(=O)N3CCN(/C(=N/S(C)(=O)=O)c4ccccc4)CC3)c12` [AM-07], the EC50 was under 500 nM. Take `O=C(C(=O)N1CCN(/C(=N/c2ccccc2)c2ccccc2)CC1)c1c[nH]c2cccc(F)c12` [AM-08, 1-(4-fluoro-1H-indol-3-yl)-2-(4-(phenyl(phenylimino)methyl)piperazin-1-yl)ethane-1,2-dione]: the EC50 is under 500 nM. Turning to `CS(=O)(=O)/N=C(\c1ccccc1)N1CCN(C(=O)C(=O)c2c[nH]c3cccc(F)c23)CC1` [AM-09], the EC50 was under 500 nM. In the case of `N#C/N=C(\c1ccccc1)N1CCN(C(=O)C(=O)c2c[nH]c3c(-n4ccnn4)ncc(F)c23)CC1` [AM-10, ((4-(2-(4-fluoro-7-(1H-1,2,3-triazol-1-yl)-1H-pyrrolo[2,3-c]pyridin-3-yl)-2-oxoacetyl)piperazin-1-yl)(phenyl)methylene)cyanamide], the EC50 was under 500 nM. As for `COc1cnc(-n2ccc(-c3ccc(C#N)cc3)n2)c2[nH]cc(C(=O)C(=O)N3CCN(/C(=N/C#N)c4ccccc4)CC3)c12` [AM-11], the EC50 is under 500 nM. Consider `C/N=C(\c1ccccc1)N1CCN(C(=O)C(=O)c2c[nH]c3ccccc23)CC1` [AM-12], for which the EC50 was over 500 nM. As for `CCC/N=C(\c1ccccc1)N1CCN(C(=O)C(=O)c2c[nH]c3ccccc23)CC1` [AM-13], the EC50 was over 500 nM. With `CC(C)(C)/N=C(\c1ccccc1)N1CCN(C(=O)C(=O)c2c[nH]c3ccccc23)CC1` [AM-14], the EC50 is over 500 nM.

As for `COc1cnc(-n2cnc(C)n2)c2[nH]cc(C(=O)C(=O)N3CCN(/C(=N/C#N)c4ccccc4)CC3)c12` [AM-16], the EC50 is under 500 nM. Consider `N#C/N=C(\c1ccccc1)N1CCN(C(=O)C(=O)c2c[nH]c3c(Br)ccc(F)c23)CC1` [AM-17], for which the EC50 is under 500 nM. Then `C/N=C(\c1ccccc1)N1CCN(C(=O)C(=O)c2c[nH]c3cccc(F)c23)CC1` [AM-18], with over 500 nM; and `O=C(C(=O)N1CCN(/C(=N/CCOCCO)c2ccccc2)CC1)c1c[nH]c2cccc(F)c12` [AM-19], with over 500 nM. As for `CN(C)CCC/N=C(\c1ccccc1)N1CCN(C(=O)C(=O)c2c[nH]c3cccc(F)c23)CC1` [AM-20], the EC50 is over 500 nM. Take `O=C(C(=O)N1CCN(/C(=N/C2CC2)c2ccccc2)CC1)c1c[nH]c2cccc(F)c12` [AM-21]: the 50% effective concentration (EC50) was over 500 nM. For the compound `O=C(C(=O)N1CCN(/C(=N/c2cccnc2)c2ccccc2)CC1)c1c[nH]c2cccc(F)c12` [AM-22], the EC50 is over 500 nM. In the case of `O=C(C(=O)N1CCN(/C(=N/CCN2CCOCC2)c2ccccc2)CC1)c1c[nH]c2cccc(F)c12` [AM-23], the EC50 is over 500 nM.

For `COc1cnc(-n2ccnn2)c2[nH]cc(C(=O)C(=O)N3CCN(/C(=N/C#N)c4ccccc4)CC3)c12` [AM-24], the concentration giving a half-maximal response (EC50) is under 500 nM. The value for `C[C@@H]1CN(/C(=N/C#N)c2ccccc2)CCN1C(=O)C(=O)c1c[nH]c2c(-n3ccnn3)ncc(F)c12` [AM-25, (((R)-4-(2-(4-fluoro-7-(1H-1,2,3-triazol-1-yl)-1H-pyrrolo[2,3-c]pyridin-3-yl)-2-oxoacetyl)-3-methylpiperazin-1-yl)(phenyl)methylene)cyanamide] was under 500 nM. As to `CN(C)S(=O)(=O)/N=C(\c1ccccc1)N1CCN(C(=O)C(=O)c2c[nH]c3cccc(F)c23)CC1` [AM-26], the EC50 was over 500 nM. For the compound `N#C/N=C(\c1ccccc1)N1CCN(C(=O)C(=O)c2c[nH]c3cc(F)cc(F)c23)CC1` [AM-28], the EC50 is under 500 nM.

`N#C/N=C(\c1ccccc1)N1CCN(C(=O)C(=O)c2c[nH]c3c(F)ccc(F)c23)CC1` [AM-30]: the EC50 was under 500 nM. As for `C[C@@H]1CN(C(=N)c2ccccc2)CCN1C(=O)C(=O)c1c[nH]c2c(-n3ccnn3)ncc(F)c12` [AM-33], the EC50 was under 500 nM. On to `COc1cnc(-n2ccnn2)c2[nH]cc(C(=O)C(=O)N3CCN(C(=N)c4ccccc4)CC3)c12` [AM-34], for which the EC50 is under 500 nM. The value for `CC(C)NC(=O)/N=C(\c1ccccc1)N1CCN(C(=O)C(=O)c2c[nH]c3cccc(F)c23)CC1` [AM-36] was over 500 nM; that for `CC1(C)OB(c2ccc(NC(=O)/N=C(\c3ccccc3)N3CCN(C(=O)C(=O)c4c[nH]c5cccc(F)c45)CC3)cc2)OC1(C)C` [AM-50] was over 500 nM. Turning to `CCc1ncn(-c2ncc(OC)c3c(C(=O)C(=O)N4CCN(/C(=N/C#N)c5ccccc5)CC4)c[nH]c23)n1` [AM-53], the EC50 was under 500 nM. The value for `N=C(c1ccccn1)N1CCN(C(=O)C(=O)c2c[nH]c3c(-n4ccnn4)ncc(F)c23)CC1` [AM-54] was under 500 nM; that for `COc1cnc(-n2cnc(C)n2)c2[nH]cc(C(=O)C(=O)N3CCN(C(=N)c4ccccn4)CC3)c12` [AM-55] was under 500 nM; that for `O=C(C(=O)N1CCN(/C(=N/C2CCC2)c2ccccc2)CC1)c1c[nH]c2c(-n3ccnn3)ncc(F)c12` [AM-56] was under 500 nM. In the case of `CN(C)CCC/N=C(\c1ccccc1)N1CCN(C(=O)C(=O)c2c[nH]c3c(-n4ccnn4)ncc(F)c23)CC1` [AM-58], the EC50 was under 500 nM. Consider `CC/N=C(\c1ccccc1)N1CCN(C(=O)C(=O)c2c[nH]c3c(-n4ccnn4)ncc(F)c23)CC1` [AM-59], for which the EC50 is under 500 nM.

Take `O=C(C(=O)N1CCN(/C(=N/CCOCCO)c2ccccc2)CC1)c1c[nH]c2c(-n3ccnn3)ncc(F)c12` [AM-60]: the EC50 is under 500 nM. Turning to `O=C(C(=O)N1CCN(/C(=N/C2CCCC2)c2ccccc2)CC1)c1c[nH]c2c(-n3ccnn3)ncc(F)c12` [AM-61], the EC50 was under 500 nM. As for `CCCC/N=C(\c1ccccc1)N1CCN(C(=O)C(=O)c2c[nH]c3c(-n4ccnn4)ncc(F)c23)CC1` [AM-62], the EC50 was under 500 nM.

In the case of `O=C(C(=O)N1CCN(/C(=N/C2CCCCC2)c2ccccc2)CC1)c1c[nH]c2c(-n3ccnn3)ncc(F)c12` [AM-63], the EC50 is under 500 nM. Then `CC(C)/N=C(\c1ccccc1)N1CCN(C(=O)C(=O)c2c[nH]c3c(-n4ccnn4)ncc(F)c23)CC1` [AM-64], with under 500 nM. In the case of `C[C@H]1CN(/C(=N/C#N)c2ccccc2)CCN1C(=O)C(=O)c1c[nH]c2c(-n3ccnn3)ncc(F)c12` [AM-65], the EC50 is under 500 nM. Then `CC[C@@H]1CN(/C(=N/C#N)c2ccccc2)CCN1C(=O)C(=O)c1c[nH]c2c(-n3ccnn3)ncc(F)c12` [AM-66], with under 500 nM. Take `CN(C)S(=O)(=O)/N=C(\c1ccccc1)N1CCN(C(=O)C(=O)c2c[nH]c3c(-n4ccnn4)ncc(F)c23)CC1` [AM-67]: the EC50 is under 500 nM. Consider `CS(=O)(=O)/N=C(\c1ccccc1)N1CCN(C(=O)C(=O)c2c[nH]c3c(-n4ccnn4)ncc(F)c23)CC1` [AM-68], for which the EC50 was under 500 nM. Take `C/N=C(\c1ccccc1)N1CCN(C(=O)C(=O)c2c[nH]c3c(-n4ccnn4)ncc(F)c23)CC1` [AM-69]: the concentration for a half-maximal effect (EC50) was under 500 nM. On to `C/N=C(\c1ccccc1)N1CCN(C(=O)C(=O)c2c[nH]c3c(-n4cnc(C)n4)ncc(OC)c23)CC1` [AM-70], for which the EC50 is under 500 nM. Then `COc1cnc(-c2cnccn2)c2[nH]cc(C(=O)C(=O)N3CCN(C(=N)c4ccccc4)C[C@H]3C)c12` [AM-71], with under 500 nM; and `COc1cnc(-c2cnccn2)c2[nH]cc(C(=O)C(=O)N3CCN(C(=N)c4ccccc4)C[C@@H]3C)c12` [AM-72], with under 500 nM; and `N=C(c1ccccc1)N1CCN(C(=O)C(=O)c2c[nH]c3c(Br)ccc(F)c23)CC1` [AM-73], with under 500 nM. As to `C[C@H]1CN(/C(=N/C#N)c2ccccc2)CCN1C(=O)C(=O)c1c[nH]c2c(Br)ccc(F)c12` [AM-76], the EC50 was under 500 nM.
